Key:
[1] = system: B-Raf^V600E mutant COLO205 colon cancer cell; test: Cell proliferation assay (CELLTITER 96), COLO205; assay type: cell-based; details: Homo sapiens, COLO 205; COLO205, 72 hours; read-out: Cytotoxicity (IC50 Ranking) COLO205 (B-Raf^V600E)
Outline: (§1)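 Cells seeded overnight (A375 and COLO205 at 2000, SK-MEL-2 at 4000 cells/well), then exposed to increasing compound concentrations for 72 h at 37° C. Viability read by MTS absorbance at 490 nm after 4 h reagent; IC50 from curve fit of percent growth inhibition versus concentration.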

[2] = target: T1, B-Raf^V600E kinase (Homo sapiens, UniProt P15056, V600E); test: B-Raf V600E kinase assay ([33P] incorporation into MEK1 K97R); assay type: biochemical; details: recombinant B-Raf^V600E, 8 μM ATP, 30 min, 30° C.; read-out: IC50 ranking against B-Raf^V600E kinase
T1 construct: purchased Upstate Biotechnology
T1 sequence (P15056 whole entry V600E): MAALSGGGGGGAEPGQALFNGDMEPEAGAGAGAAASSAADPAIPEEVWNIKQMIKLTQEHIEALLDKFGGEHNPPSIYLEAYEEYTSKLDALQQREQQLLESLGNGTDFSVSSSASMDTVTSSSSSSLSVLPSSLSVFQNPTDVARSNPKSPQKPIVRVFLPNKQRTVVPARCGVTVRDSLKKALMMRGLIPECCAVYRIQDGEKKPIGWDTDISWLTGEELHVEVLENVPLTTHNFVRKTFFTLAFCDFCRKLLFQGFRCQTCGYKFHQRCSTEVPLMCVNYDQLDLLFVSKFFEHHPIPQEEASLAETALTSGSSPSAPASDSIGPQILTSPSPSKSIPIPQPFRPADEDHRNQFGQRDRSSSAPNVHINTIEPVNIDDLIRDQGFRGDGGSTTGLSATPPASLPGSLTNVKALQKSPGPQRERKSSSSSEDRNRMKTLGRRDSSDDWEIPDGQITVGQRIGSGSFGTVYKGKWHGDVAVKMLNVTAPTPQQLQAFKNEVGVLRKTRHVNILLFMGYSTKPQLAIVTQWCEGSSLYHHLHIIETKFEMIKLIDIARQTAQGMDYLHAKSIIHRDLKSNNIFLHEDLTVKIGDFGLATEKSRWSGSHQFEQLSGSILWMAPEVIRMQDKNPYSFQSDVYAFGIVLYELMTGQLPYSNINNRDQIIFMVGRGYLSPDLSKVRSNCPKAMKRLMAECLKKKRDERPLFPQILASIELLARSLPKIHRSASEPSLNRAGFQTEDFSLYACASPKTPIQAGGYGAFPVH
Outline: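 Recombinant B-Raf V600E (5 ng) phosphorylating MEK1 K97R (500 ng) with 8 μM ATP plus [33P]ATP in Tris pH 7.5 buffer, 30 min at 30 °C. Filter-bound 33P counted by scintillation; IC50 from 3-fold dilution series in duplicate.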

[3] = system: SK-MEL-2 melanoma cell with wild type B-Raf (B-Raf^wt) and NRAS^Q61R mutation; test: Cell proliferation assay (CELLTITER 96), SK-MEL-2; assay type: cell-based; details: Homo sapiens; SK-MEL-2, 72 hours; given as bound; read-out: Cytotoxicity (IC50 Ranking) SK-MEL-2 (NRAS^Q61R, B-Raf^wt)
Outline: as §1

[4] = system: B-Raf^V600E mutant A375 melanoma cell; test: Cell proliferation assay (CELLTITER 96), A375; assay type: cell-based; details: Homo sapiens, A-375; A375, 72 hours; read-out: Cytotoxicity (IC50 Ranking) A375 (B-Raf^V600E)
Outline: as §1

[5] = target: T2, C-Raf kinase (Homo sapiens, UniProt P04049); test: C-Raf kinase assay ([33P] incorporation into MEK1 K97R); assay type: biochemical; details: recombinant C-Raf, 8 μM ATP, 30 min, 30° C.; read-out: IC50 ranking against C-Raf kinase
T2 construct: purchased Upstate Biotechnology
T2 sequence (P04049 whole entry): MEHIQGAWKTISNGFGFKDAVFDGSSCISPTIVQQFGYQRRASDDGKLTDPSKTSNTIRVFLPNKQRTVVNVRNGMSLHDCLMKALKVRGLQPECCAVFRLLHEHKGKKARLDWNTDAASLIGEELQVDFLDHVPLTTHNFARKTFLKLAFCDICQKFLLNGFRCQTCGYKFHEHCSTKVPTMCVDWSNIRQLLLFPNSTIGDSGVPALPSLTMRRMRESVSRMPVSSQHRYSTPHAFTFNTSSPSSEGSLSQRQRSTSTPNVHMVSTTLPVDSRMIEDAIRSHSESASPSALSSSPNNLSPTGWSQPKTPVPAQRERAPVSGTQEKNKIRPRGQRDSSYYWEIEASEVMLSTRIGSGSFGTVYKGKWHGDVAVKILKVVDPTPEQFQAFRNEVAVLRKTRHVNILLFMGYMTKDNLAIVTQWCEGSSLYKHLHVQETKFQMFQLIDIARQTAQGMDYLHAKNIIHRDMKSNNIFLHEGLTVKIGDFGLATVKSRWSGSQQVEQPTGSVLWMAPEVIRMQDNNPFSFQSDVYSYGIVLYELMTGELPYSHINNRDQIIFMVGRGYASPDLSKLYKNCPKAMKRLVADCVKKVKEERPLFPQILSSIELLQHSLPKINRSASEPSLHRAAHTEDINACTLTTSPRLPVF
Outline: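 Recombinant C-Raf (2 ng) phosphorylating MEK1(K97R) with 8 μM ATP plus [33P]ATP, pH 7.5 Tris buffer, 30 min at 30° C. Acid-stopped, filter-captured 33P counted by scintillation; IC50 from 3-fold dilution series run in duplicate.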

[6] = target: T3, B-Raf kinase (Homo sapiens, UniProt P15056); test: B-Raf kinase assay ([33P] incorporation into MEK1 K97R); assay type: biochemical; details: recombinant B-Raf, 8 μM ATP, 30 min, 30° C.; read-out: IC50 ranking against B-Raf kinase
T3 construct: purchased Upstate Biotechnology
T3 sequence (P15056 whole entry): as the sequence (P15056 whole entry V600E) above, with E600V counted along it
Outline: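 Recombinant B-Raf (5 ng) phosphorylating MEK1 K97R (500 ng) with 8 μM ATP plus [33P]ATP in Tris/HCl pH 7.5 buffer, 30 min at 30° C. Filter-captured 33P counted by scintillation; IC50 from 3-fold serial dilutions run in duplicate.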

IC50 [2] [nM]	IC50 [5] [nM]	IC50 [6] [nM]	SMILES	IC50 [1] [nM]	IC50 [3] [nM]	IC50 [4] [nM]
< 300	< 300	< 300	CCCS(=O)(=O)Nc1ccc(F)c(Nc2ccc3ncc(OC)nc3c2C#N)c1Cl [compound 46, N-(2-chloro-3-(5-cyano-3-methoxyquinoxalin-6-ylamino)-4-fluorophenyl)propane-1-sulfonamide]	< 300	> 10000	< 300
< 300	< 300	< 300	N#Cc1c(Nc2c(F)ccc(NS(=O)(=O)c3ccccc3)c2Cl)ccc2ncc(N3CCOCC3)nc12 [compound 49, N-(2-chloro-3-(5-cyano-3-morpholinoquinoxalin-6-ylamino)-4-fluorophenyl)benzenesulfonamide]	< 300	> 10000	< 300
< 300	< 300	< 300	CCCS(=O)(=O)Nc1cccc(Nc2ccc3ncc(OC)nc3c2C#N)c1C#N [compound 50, N-(2-cyano-3-(5-cyano-3-methoxyquinoxalin-6-ylamino)phenyl)propane-1-sulfonamide]	< 300	> 10000	< 300

The remaining lines, values behind:

SMILES	IC50 [2] [nM]	IC50 [5] [nM]	IC50 [6] [nM]	IC50 [1] [nM]	IC50 [3] [nM]	IC50 [4] [nM]
COc1cnc2ccc(Nc3c(F)ccc(NS(=O)(=O)c4ccccc4)c3Cl)c(C#N)c2n1 [compound 47, N-(2-chloro-3-(5-cyano-3-methoxyquinoxalin-6-ylamino)-4-fluorophenyl)benzenesulfonamide]	< 300	< 300	< 300	< 300	> 10000	< 300
CCCS(=O)(=O)Nc1ccc(F)c(Nc2ccc3ncc(N4CCOCC4)nc3c2C#N)c1Cl [compound 48, N-(2-chloro-3-(5-cyano-3-morpholinoquinoxalin-6-ylamino)-4-fluorophenyl)propane-1-sulfonamide]	< 300	< 300	< 300	< 300	> 10000	< 300

— patent US10745360B2, “Quinoxaline compounds, method for preparing the same and use thereof” (Development Center for Biotechnology, priority 2014, dated 2020)
